ChEMBL document CHEMBL2029272, “7-Azabicyclo[2.2.1]heptane as a scaffold for the development of selective sigma-2 (σ2) receptor ligands” (Bioorg Med Chem Lett, 2012)

Experiments:
[1] = Displacement of [3H]DTG from sigma2 receptor in […]; format: cell-based; conditions: pc-12
D(2) dopamine receptor = D(2) dopamine receptor (Homo sapiens, UniProt P14416); test: Inhibition of D2 dopamine receptor
[2] = target: Sodium-dependent serotonin transporter (Homo sapiens, UniProt P31645); test: Inhibition of SERT
[3] = target: T1, Sodium-dependent dopamine transporter (Homo sapiens, UniProt Q01959); test: Inhibition of DAT at 10 uM
Histamine H3 receptor [4] = target: T2, Histamine H3 receptor (Homo sapiens, UniProt Q9Y5N1); test: Inhibition of H3 receptor at 10 uM
[5] = Inhibition of NMDA receptor PCP binding site at 10 uM
[6] = target: Sodium-dependent noradrenaline transporter (Homo sapiens) (UniProt P23975); test: Inhibition of NET at 10 uM
[7] = target: T1, Sodium-dependent dopamine transporter; test: Inhibition of DAT
[8] = target: Sigma non-opioid intracellular receptor 1 (Rattus norvegicus, UniProt Q9R0C9); test: Displacement of [3H](+)-pentazocine from sigma1 receptor in rat brain homogenate; format: tissue-based
Histamine H3 receptor [9] = target: T2, Histamine H3 receptor; test: Inhibition of H3 receptor
D(1B) dopamine receptor = D(1B) dopamine receptor (Homo sapiens, UniProt P21918); test: Inhibition of D5 dopamine receptor at 10 uM
PC-12 = test: Displacement of [3H]DTG from sigma2 receptor in […] at 10 uM; format: cell-based

T2 sequence (Q9Y5N1 whole entry): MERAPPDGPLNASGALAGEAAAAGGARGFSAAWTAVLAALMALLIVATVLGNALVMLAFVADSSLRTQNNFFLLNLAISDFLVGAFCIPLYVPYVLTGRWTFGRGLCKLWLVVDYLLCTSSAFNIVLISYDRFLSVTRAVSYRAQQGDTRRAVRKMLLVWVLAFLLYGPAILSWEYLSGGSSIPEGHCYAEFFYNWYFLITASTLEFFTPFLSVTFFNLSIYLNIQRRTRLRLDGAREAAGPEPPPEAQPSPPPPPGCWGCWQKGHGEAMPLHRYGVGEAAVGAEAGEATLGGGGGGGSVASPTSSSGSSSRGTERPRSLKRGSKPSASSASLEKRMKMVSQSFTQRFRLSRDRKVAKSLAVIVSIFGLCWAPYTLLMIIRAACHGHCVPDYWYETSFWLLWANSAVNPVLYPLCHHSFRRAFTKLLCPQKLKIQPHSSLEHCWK
Sequence of Sodium-dependent serotonin transporter (P31645 whole entry): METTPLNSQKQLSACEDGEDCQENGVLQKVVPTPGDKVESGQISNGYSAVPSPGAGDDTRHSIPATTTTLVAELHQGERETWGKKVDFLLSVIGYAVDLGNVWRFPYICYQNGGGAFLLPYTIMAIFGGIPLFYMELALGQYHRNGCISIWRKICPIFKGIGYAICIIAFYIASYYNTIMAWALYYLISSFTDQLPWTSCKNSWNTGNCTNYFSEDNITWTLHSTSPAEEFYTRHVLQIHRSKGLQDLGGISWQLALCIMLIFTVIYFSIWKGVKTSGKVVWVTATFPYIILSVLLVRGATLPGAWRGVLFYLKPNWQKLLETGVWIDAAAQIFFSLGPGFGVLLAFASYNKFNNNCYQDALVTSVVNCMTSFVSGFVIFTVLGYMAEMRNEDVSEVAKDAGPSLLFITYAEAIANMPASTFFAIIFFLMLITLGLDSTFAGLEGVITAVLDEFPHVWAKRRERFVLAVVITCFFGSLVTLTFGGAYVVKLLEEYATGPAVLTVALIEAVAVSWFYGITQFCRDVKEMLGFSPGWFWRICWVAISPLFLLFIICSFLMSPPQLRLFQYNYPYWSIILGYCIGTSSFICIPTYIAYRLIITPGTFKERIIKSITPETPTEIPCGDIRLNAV
Sequence of Sodium-dependent noradrenaline transporter (Homo sapiens) (P23975 whole entry): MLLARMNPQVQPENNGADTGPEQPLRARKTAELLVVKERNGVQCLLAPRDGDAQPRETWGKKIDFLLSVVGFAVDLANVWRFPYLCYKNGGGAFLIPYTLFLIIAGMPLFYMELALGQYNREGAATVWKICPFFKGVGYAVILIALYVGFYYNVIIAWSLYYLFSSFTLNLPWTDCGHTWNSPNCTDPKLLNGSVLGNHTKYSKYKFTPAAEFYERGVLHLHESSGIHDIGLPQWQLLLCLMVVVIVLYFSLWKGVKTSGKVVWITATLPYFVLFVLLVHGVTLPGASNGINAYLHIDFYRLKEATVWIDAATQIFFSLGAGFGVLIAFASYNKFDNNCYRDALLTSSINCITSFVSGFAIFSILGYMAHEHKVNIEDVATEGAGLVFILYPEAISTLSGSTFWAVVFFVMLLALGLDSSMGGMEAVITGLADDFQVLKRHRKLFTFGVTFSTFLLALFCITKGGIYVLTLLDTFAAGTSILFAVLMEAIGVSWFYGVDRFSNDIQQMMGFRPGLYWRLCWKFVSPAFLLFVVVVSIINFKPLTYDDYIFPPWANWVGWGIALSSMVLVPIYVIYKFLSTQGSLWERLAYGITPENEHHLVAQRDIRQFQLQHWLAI
Sequence of D(2) dopamine receptor (P14416 whole entry): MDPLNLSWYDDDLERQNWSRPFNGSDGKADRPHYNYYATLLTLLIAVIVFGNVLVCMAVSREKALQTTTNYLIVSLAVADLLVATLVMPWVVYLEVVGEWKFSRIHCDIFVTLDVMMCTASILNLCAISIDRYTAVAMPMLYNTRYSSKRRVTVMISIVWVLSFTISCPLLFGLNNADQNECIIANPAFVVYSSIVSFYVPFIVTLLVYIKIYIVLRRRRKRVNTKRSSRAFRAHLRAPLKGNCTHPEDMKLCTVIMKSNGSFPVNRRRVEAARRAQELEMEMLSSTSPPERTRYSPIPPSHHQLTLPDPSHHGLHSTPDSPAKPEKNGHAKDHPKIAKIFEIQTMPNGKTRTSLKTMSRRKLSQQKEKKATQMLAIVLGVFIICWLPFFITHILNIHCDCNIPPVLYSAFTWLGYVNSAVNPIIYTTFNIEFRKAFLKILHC
Sequence of Sigma non-opioid intracellular receptor 1 (Q9R0C9 whole entry): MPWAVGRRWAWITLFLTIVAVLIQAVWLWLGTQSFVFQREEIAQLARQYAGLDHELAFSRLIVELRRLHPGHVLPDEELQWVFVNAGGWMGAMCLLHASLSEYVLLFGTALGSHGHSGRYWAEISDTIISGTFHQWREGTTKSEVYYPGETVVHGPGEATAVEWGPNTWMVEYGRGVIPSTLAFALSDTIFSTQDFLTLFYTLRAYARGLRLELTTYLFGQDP
T1 sequence (Q01959 whole entry): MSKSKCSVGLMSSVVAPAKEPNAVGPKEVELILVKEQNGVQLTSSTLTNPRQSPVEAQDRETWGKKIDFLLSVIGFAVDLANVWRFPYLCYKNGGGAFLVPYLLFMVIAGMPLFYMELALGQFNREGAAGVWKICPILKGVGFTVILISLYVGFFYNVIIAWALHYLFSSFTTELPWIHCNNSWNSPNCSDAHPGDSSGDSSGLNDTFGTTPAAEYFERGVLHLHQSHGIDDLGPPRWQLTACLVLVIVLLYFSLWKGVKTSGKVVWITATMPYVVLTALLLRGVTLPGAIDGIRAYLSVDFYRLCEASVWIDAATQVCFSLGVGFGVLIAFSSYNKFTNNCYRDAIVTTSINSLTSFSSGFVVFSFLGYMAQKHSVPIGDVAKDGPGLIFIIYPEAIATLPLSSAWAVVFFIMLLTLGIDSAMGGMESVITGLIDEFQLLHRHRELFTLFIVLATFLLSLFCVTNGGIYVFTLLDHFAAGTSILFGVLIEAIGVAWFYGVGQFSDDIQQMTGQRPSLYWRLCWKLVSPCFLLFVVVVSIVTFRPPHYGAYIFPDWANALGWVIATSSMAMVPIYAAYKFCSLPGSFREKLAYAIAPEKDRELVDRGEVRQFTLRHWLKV
Sequence of D(1B) dopamine receptor (P21918 whole entry): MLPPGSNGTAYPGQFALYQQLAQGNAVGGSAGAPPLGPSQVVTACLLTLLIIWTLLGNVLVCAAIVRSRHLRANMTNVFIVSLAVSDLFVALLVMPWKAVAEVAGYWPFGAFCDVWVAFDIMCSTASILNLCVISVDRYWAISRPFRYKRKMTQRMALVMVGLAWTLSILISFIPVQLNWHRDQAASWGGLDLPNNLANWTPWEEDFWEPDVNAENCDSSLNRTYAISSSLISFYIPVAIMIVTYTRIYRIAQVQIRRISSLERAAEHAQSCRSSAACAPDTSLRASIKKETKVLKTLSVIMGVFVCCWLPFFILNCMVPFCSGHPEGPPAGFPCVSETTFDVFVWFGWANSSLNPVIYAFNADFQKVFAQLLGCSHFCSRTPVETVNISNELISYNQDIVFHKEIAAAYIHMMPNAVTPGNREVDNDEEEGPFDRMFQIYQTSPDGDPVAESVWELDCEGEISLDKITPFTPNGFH

| Compound | Ki [1] [nM] | Ki (D(2) dopamine receptor) [nM] | Ki [2] [nM] | inhibition [3] [%] | inhibition (Histamine H3 receptor [4]) [%] | inhibition [5] [%] | inhibition [6] [%] | Ki [7] [nM] | Ki [8] [nM] | Ki (Histamine H3 receptor [9]) [nM] | inhibition (D(1B) dopamine receptor) [%] | inhibition (PC-12) [%] |
| --- | --- | --- | --- | --- | --- | --- | --- | --- | --- | --- | --- | --- |
| COc1ccc(CN2C3CCC2CC3)cc1OC | 43.1 | > 10000 | > 10000 | < 50 | < 50 | < 50 | < 50 |  |  |  |  |  |
| c1ccc(CCN2CCCC2)cc1 | 658 |  | > 10000 |  |  | < 50 | < 50 | 2730 |  |  |  |  |
| Fc1cccc(CCCN2C3CCC2CC3)c1 | 11.9 | > 10000 |  | < 50 | < 50 | < 50 | < 50 |  | 120 |  |  |  |
| c1ccc(CCN2C3CCC2CC3)cc1 | 131 | > 1000 |  | < 50 |  | < 50 | < 50 |  | 276 | 7770 |  |  |
| c1ccc(CCN2CCCC2)nc1 | 3520 | > 10000 | > 10000 | < 50 |  | < 50 | < 50 |  |  |  |  |  |
| Fc1cccc(CN2C3CCC2CC3)c1 | 251 | > 10000 | > 10000 | < 50 | < 50 | < 50 | < 50 |  |  |  |  |  |
| Fc1cccc(CCN2CCCC2)c1 | 246 | > 10000 | > 10000 |  |  | < 50 | < 50 | 2310 |  |  |  |  |
| Fc1cccc(CN2CCCC2)c1 | 1610 |  | > 10000 | < 50 |  | < 50 | < 50 |  |  |  |  |  |
| c1ccc(CCN2C3CCC2CC3)nc1 | 517 | > 10000 |  | < 50 | < 50 | < 50 | < 50 |  | 3830 |  |  |  |
| c1ccc(CN2CCCC2)cc1 | 852 |  | > 10000 | < 50 |  | < 50 | < 50 |  |  |  | < 50 |  |
| c1cncc(CN2C3CCC2CC3)c1 | 6350 | > 10000 |  | < 50 | < 50 | < 50 | < 50 |  |  |  |  |  |
| COc1ccc(CN2CCCC2)cc1OC | 661 |  | > 10000 | < 50 |  | < 50 | < 50 |  |  |  |  |  |
| Fc1cccc(CCCN2CCCC2)c1 | 39 | 9910 | 4360 |  |  | < 50 | < 50 | 3310 |  |  |  |  |
| c1ccc(CN2C3CCC2CC3)cc1 | 399 | > 10000 | > 10000 | < 50 |  | < 50 | < 50 |  |  |  |  |  |
| c1cncc(CN2CCCC2)c1 |  |  | > 10000 | < 50 |  | < 50 | < 50 |  |  |  |  | < 50 |
| Fc1cccc(CCN2C3CCC2CC3)c1 | 29.5 | > 10000 |  | < 50 | < 50 | < 50 | < 50 |  | 103 |  |  |  |
